Values joined by “and” are separate entries in the source; they are usually repeats but may differ in a detail not shown here. Equal values may be shown once.
Experiment: In vitro binding affinity against alpha-2D adrenergic receptor of male Wistar rat

**Q.** With `c1ncc(Cc2ccsc2)[nH]1` as the molecule, how does the Ki read?
**A.** 3.1 nM

**Q.** Which Ki does the source give for `Cc1csc(C(C)c2cnc[nH]2)c1C` (centres undefined) here?
**A.** 0.75 nM

**Q.** Which Ki does the source give for `CCc1sccc1Cc1cnc[nH]1` here?
**A.** 0.07 nM

**Q.** With `Cc1sccc1C(C)c1cnc[nH]1` (centres undefined) as the molecule, how does the Ki read?
**A.** 2.3 nM

**Q.** For `CCc1cscc1Cc1cnc[nH]1`, which Ki is on record?
**A.** 0.29 nM

**Q.** For `Brc1csc(Cc2cnc[nH]2)c1Br`, which Ki is on record?
**A.** 0.07 nM

**Q.** Which Ki does the source give for `Cc1cc(Cc2cnc[nH]2)c(C)s1` here?
**A.** 0.69 nM

**Q.** With `Brc1cscc1Cc1cnc[nH]1` as the molecule, how does the Ki read?
**A.** 0.23 nM

**Q.** Which Ki does the source give for `Cc1ccsc1Cc1cnc[nH]1` here?
**A.** 0.45 nM

**Q.** For `Cc1cscc1C(C)c1cnc[nH]1` (centres undefined), which Ki is on record?
**A.** 0.39 nM

**Q.** For `Clc1cc(Cc2cnc[nH]2)c(Cl)s1`, which Ki is on record?
**A.** 0.088 nM

**Q.** Which Ki does the source give for `CCC(c1cnc[nH]1)c1cscc1C` (centres undefined) here?
**A.** 0.97 nM

**Q.** With `CC(c1cnc[nH]1)c1scc(Br)c1Br` (centres undefined) as the molecule, how does the Ki read?
**A.** 0.43 nM

**Q.** With `Cc1ccc(Cc2cnc[nH]2)s1` as the molecule, how does the Ki read?
**A.** 3.6 nM

**Q.** With `c1csc(Cc2cnc[nH]2)c1` as the molecule, how does the Ki read?
**A.** 8.7 nM

**Q.** With `c1ncc(Cc2cc3c(s2)CCCC3)[nH]1` as the molecule, how does the Ki read?
**A.** 3.7 nM

**Q.** With `CCc1cc(Cc2cnc[nH]2)c(CC)s1` as the molecule, how does the Ki read?
**A.** 0.4 nM

**Q.** Which Ki does the source give for `Cc1csc(C)c1Cc1cnc[nH]1` here?
**A.** 0.1 nM

**Q.** With `Cc1sccc1Cc1cnc[nH]1` as the molecule, how does the Ki read?
**A.** 0.44 nM

**Q.** With `Cc1cscc1Cc1cnc[nH]1` as the molecule, how does the Ki read?
**A.** 0.47 nM

**Q.** Which Ki does the source give for `Cc1ccsc1C(C)c1cnc[nH]1` (centres undefined) here?
**A.** 0.78 nM and 2.1 nM

**Q.** With `CCC(c1cnc[nH]1)c1sccc1C` (centres undefined) as the molecule, how does the Ki read?
**A.** 8.3 nM

**Q.** Which Ki does the source give for `c1ccc2c(Cc3cnc[nH]3)csc2c1` here?
**A.** 0.09 nM

**Q.** With `COC(c1cnc[nH]1)c1cscc1C` (centres undefined) as the molecule, how does the Ki read?
**A.** 15.9 nM

**Q.** Which Ki does the source give for `Cc1cccc([C@H](C)c2cnc[nH]2)c1C` [4-[(1S)-1-(2,3-dimethylphenyl)ethyl]-1H-imidazole] here?
**A.** 0.015 nM

**Q.** For `c1ccc2sc(Cc3cnc[nH]3)cc2c1`, which Ki is on record?
**A.** 1.1 nM

**Q.** With `CC(c1cnc[nH]1)c1sccc1Br` (centres undefined) as the molecule, how does the Ki read?
**A.** 0.96 nM and 0.18 nM

**Q.** Which Ki does the source give for `CCc1cscc1C(C)c1cnc[nH]1` (centres undefined) here?
**A.** 0.28 nM

**Q.** For `CC(c1cnc[nH]1)c1cscc1Br` (centres undefined), which Ki is on record?
**A.** 0.08 nM

**Q.** Which Ki does the source give for `Cc1ccsc1C1(c2cnc[nH]2)CC1` here?
**A.** 1000 nM

**Q.** For `COC(c1cnc[nH]1)c1sccc1Br` (centres undefined), which Ki is on record?
**A.** 39 nM

**Q.** For `Brc1ccsc1Cc1cnc[nH]1`, which Ki is on record?
**A.** 0.35 nM

**Q.** For `CC(C)c1cc(Cc2cnc[nH]2)c(C(C)C)s1`, which Ki is on record?
**A.** 12 nM

**Q.** Which Ki does the source give for `Cc1csc(Cc2cnc[nH]2)c1C` here?
**A.** 0.17 nM
